From publication PMC9085577, “Discovery of a Potent and Orally Active Dual GPBAR1/CysLT1R Modulator for the Treatment of Metabolic Fatty Liver Disease” (Frontiers in Pharmacology, 2022)
Converted amounts (≈) assume the structure as drawn.

How the values were obtained:
[1] = target: T1, human GPBAR1 (Homo sapiens, UniProt Q8TDU6); assay: GPBAR1 CRE-luciferase reporter transactivation assay in HEK-293T cells; assay type: cell-based; settings: HEK293T cells
T1 construct: expressed in transfected cells; host or cells: HEK-293T cells, transient transfection (Fugene HD)
T1 sequence (Q8TDU6 1-330): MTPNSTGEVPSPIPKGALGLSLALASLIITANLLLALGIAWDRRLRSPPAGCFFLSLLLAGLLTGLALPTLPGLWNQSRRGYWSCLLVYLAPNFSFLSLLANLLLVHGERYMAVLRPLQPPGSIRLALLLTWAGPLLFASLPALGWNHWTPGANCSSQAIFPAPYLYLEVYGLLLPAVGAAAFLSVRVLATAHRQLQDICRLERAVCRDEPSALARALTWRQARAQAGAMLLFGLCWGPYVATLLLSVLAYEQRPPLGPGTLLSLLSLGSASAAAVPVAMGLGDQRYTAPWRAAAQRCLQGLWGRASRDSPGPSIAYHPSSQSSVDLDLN
Protocol: GPBAR1. […] At 18 h post stimulations, cellular lysates were assayed for luciferase and Renilla activities using the Dual-Luciferase Reporter assay system (E1980, Promega Madison WI). Luminescence was measured using Glomax 20/20 luminometer (Promega, Madison WI). Luciferase activities were normalized with Renilla activities.
Agonistic activities of compounds on GPBAR1 were compared to TLCA, which was set as 100%.

[2] = test system: eWAT and colon mRNA expression; assay: Quantitative real-time PCR of eWAT and colon of HFD-F mice; assay type: in vivo; settings: 30 mg/kg/day by gavage
Description: C57BL/6J male mice were fed a high fat diet (HFD) containing 59 KJ% fat plus 1% cholesterol, w/o sugar (ssniff ® EF R/M acc. D12330 mod. 22,7 ME/kg) and fructose (HFD-F) in drinking water (42 g/L), or normal chow diet for 61 days. Food intake was estimated as the difference of weight between the offered and the remnant amount of food at 3-days intervals. The food was provided as pressed pellets and the residual spillage was not considered. After 7 days, HFD-F mice were randomized to receive HFD-F alone or in combination with compound 2 (30 mg/kg/day) by gavage until the end of the experiment. Doses of each agent were chosen according to previously published data. Mice were housed under controlled temperature (22°C) and photoperiods (12:12-h light/dark cycle), allowed unrestricted access to standard mouse chow and tap water. The experimental protocol was approved by the Animal Care and Use Committee of the University of Perugia and by the Italian Minister of Health and Istituto Superiore di Sanità (Italy) and was in agreement with the European guidelines for use of experimental animals (permission n. 583/2017-PR). The general health of the animals was monitored daily by the Veterinarian in the animal facility. At the day of sacrifice, fed mice were deeply anesthetized with a mixture of tiletamine hypochloride and zolazepam hypochloride/xylazine at a dose of 50/5 mg/kg and sacrificed before 12 a.m.
RNA was extracted from eWAT and colon with Direct-zol™ RNA MiniPrep w/Zymo-Spin™ IIC Columns (Zymo Research, Irvine, CA) and it was subjected to reverse transcription with FastGene Scriptase Basic Kit (Nippon Genetics Europe) in a 20 μL reaction volume.
For real time PCR, 50 ng cDNA were amplified in a 20 μL solution containing 200 nM of each primer and 10 μL of SYBR Select Master Mix (Thermo Fisher Scientific, Waltham, MA, United States). All reactions were performed in triplicate, and the thermal cycling conditions were as follows: 10 min at 95°C, followed by 40 cycles of 95°C for 10 s and 60°C for 45 s with QuantStudio™ 3 Real-Time PCR System (Applied Biosystems). The relative mRNA expression was calculated and expressed as 2−(ΔΔCt). Expression of the respective gene was normalized against Gapdh mRNA as an internal control. The following primers for Real-Time PCR were used: mouse-Gapdh: ctgagtatgtcgtggagtctac and gttggtggtgcaggatgcattg; mouse-Srebf1: gatcaaagaggagccagtgc and tagatggtggctgctgagtg; mouse-Fasn: tcaagatgaaggtggcagaggtgct and ttgagcagtgccgggattcgg; mouse-Pgc1α: cttagcactcagaaccatgcag and aatgctcttcgctttattgctc; mouse-Fxr: actggaccacgaagatcagatt and gagcgtactcctcctgagtcat; mouse-adiponectin: tgacagatcagctcgagtgg and cagtgccgtcagttcttgtg; mouse-Tnf-α: ccaccacgctcttctgtcta and agggtctgggccatagaact; mouse-ucp2: ttgcccgtaatgccattgtc and gcaagggaggtcatctgtca; mouse-cd11b gtcagagtctgcctccgtgt and cagggtctaaagccaggtca; mouse-pparγ: gccagtttcgatccgtagaa and aatccttggccctctgagat; mouse-Il-1β: gctgaaagctctccacctca and aggccacaggtattttgtcg; mouse-Gcg: ccaagattttgtgcagtggtt and ccttcagcatgcctctcaaa.

[3] = Aqueous solubility in PBS pH 7.4 by LC-MS/MS; assay type: physicochemical
Protocol: Solubility. Ten microliters of a 10 mM solution of tested compounds were diluted either in 490 µL of PBS pH 7.4 or MeOH and agitated for 24 h at 250 rpm. The obtained solutions were first centrifuged for 5 min at 4,000 rpm and then further diluted adding 10 μL of each sample to 490 µL of MeOH. Samples were analyzed by LC-MS/MS and the ratio of mass signal area obtained in PBS and in organic solvent was then measured and used to determine solubility.

Q: Which EC50 ([1]; CRE luciferase) does the source give for `O=C(O)c1cccc(-c2ccc(OCc3ccc4ccccc4n3)cc2)c1` [Compound 2, 4'-(quinolin-2-ylmethoxy)-[1,1′-biphenyl]-3-carboxylic acid] here?
A: The EC50 was 4.6 ± 1.5 µM.

Q: And the Emax ([1]; HEK-293T, compound 10 µM relative to TLCA (10 μM) as 100, CRE transactivation, read-out: GPBAR1 Eff (%) maximum efficacy)?
A: Its Emax is 82 ± 1.2%.

Q: And the “colon expression of Gcg” value [2]?
A: The value was “upregulated”.

Q: And the “colon expression of Il-1β” value [2]?
A: The value was “strongly reduced”.

Q: And the “eWAT expression of Cd11b” value [2]?
A: The value was “robustly reduced”.

Q: What about the “eWAT expression of Tnf-α” value [2] of the same compound?
A: The value was “robustly reduced”.

Q: And the “eWAT expression of Ucp2” value [2]?
A: The value was “upregulated”.

Q: What about the Solubility [3] of the same compound?
A: Its Solubility is “good”.

Q: What about the solubility at 24 h ([3]; PBS pH 7.4) of the same compound?
A: The solubility at 24 h was 66 µM (≈ 23.5 µg/mL).
